Publication PMC12030706, “Novel ^177Lu-Labeled [Thz^14]Bombesin(6–14) Derivatives with Low Pancreas Accumulation for Targeting Gastrin-Releasing Peptide Receptor-Expressing Cancer” (Pharmaceuticals, 2025)

Experiments:
[1] = LogD7.4 measurement, shake flask method; assay type: physicochemical; settings: n-octanol/DPBS pH 7.4, n = 3
Description: The logD7.4 values of all the ^177Lu-labeled GRPR-targeted ligands were measured using the shake flask method as previously reported. An aliquot (~2 MBq) of the radiolabeled product was added to a mixture of n-octanol (3 mL) and DPBS (3 mL, pH 7.4), followed by 1 min vortexing and 15 min centrifugation at 5000 rpm. Samples of the n-octanol (1 mL) and buffer (1 mL) layers were collected, and the activity was counted using a gamma counter. The logD7.4 values were calculated using the following equation: logD7.4=log10[countsn−octanolphase/countsbutterphase]

[2] = Ex vivo biodistribution in PC-3 tumor-bearing mice; settings: mouse; for tissue to tissue ratio at 1 h / tissue to tissue ratio at 4 h / tissue to tissue ratio at 24 h / tissue to tissue ratio at 72 h / tissue to tissue ratio at 120 h: male, NOD.Cg-Rag1^tm1Mom Il2rg^tm1Wjl/SzJ (NRG), total radioactivity; for tissue to tissue ratio at 4 h / tissue uptake at 4 h: 4 h post-injection; for tissue to tissue ratio at 24 h / tissue uptake at 24 h: 24 h post-injection; for tissue to tissue ratio at 72 h / tissue uptake at 72 h: 72 h post-injection; for tissue to tissue ratio at 120 h / tissue uptake at 120 h: 120 h post-injection
Description: SPECT/CT imaging experiments were performed using an MILabs (Houten, The Netherlands) U-SPECT-II/CT scanner with a custom-made ultra-high-sensitivity big mouse collimator (2 mm pinhole size) following previously reported procedures. […] Male NOD.Cg-Rag1^tm1Mom Il2rg^tm1Wjl/SzJ (NRG) mice were used in these experiments because of their immunodeficient characteristics and excellent radiation tolerance. Mice were anaesthetized and subcutaneously implanted with 5 × 10^6 PC-3 prostate cancer cells (100 µL; 1:1 PBS/Matrigel) behind the left shoulder. SPECT/CT imaging and biodistribution studies were performed once the tumors reached a diameter of 5–8 mm, typically after approximately 4 weeks of growth.
For ex vivo biodistribution studies, the mice were injected with ~2–6 MBq of the radioligand. […] Blocking study was conducted at 1 h post-injection via co-injection of the radioligand with 100 μg of [D-Phe^6,Leu-NHEt^13,des-Met^14]Bombesin(6–14). Organs/tissues of interested were collected, weighed, and measured using an automatic gamma counter.

[3] = tumor/blood, Tumor/blood uptake ratio
[4] = tumor/kidney, Tumor/kidney uptake ratio
[5] = tumor/muscle, Tumor/muscle uptake ratio
[6] = tumor/pancreas, Tumor/pancreas uptake ratio
[7] = PC-3 tumor, Uptake in PC-3 tumor
[8] = adrenal glands, Uptake in adrenal glands
[9] = large intestine, Uptake in large intestine

Question: With `CC(C)C[C@H](NC(=O)[C@H](Cc1cnc[nH]1)N(C)C(=O)CNC(=O)[C@@H](NC(=O)[C@H](C)NC(=O)[C@H](Cc1c[nH]c2ccccc12)NC(=O)[C@H](CCC(N)=O)NC(=O)[C@@H](Cc1ccccc1)NC(=O)CN1CCC(NC(=O)CN2CCN(CC(=O)O)CCN(CC(=O)O)CCN(CC(=O)O)CC2)CC1)C(C)(C)C)C(=O)N1CSC[C@H]1C(N)=O` [[^177Lu]Lu-LW01110, metal not drawn] as the molecule, how does the logD [1] read?
Answer: -2.76 ± 0.1

Question: What about the tissue to tissue ratio at 1 h ([2]; tumor/blood, Tumor/blood uptake ratio, 1 h blocked (co-injected with 100 µg [D-Phe6,Leu-NHEt13,des-Met14]Bombesin(6-14))) of the same molecule?
Answer: 5.32 ± 0.87

Question: And the tissue to tissue ratio at 1 h ([2]; tumor/blood, Tumor/blood uptake ratio, 1 h post-injection)?
Answer: 15.9 ± 1.55

Question: What about the tissue to tissue ratio at 4 h [2, 3] of the same molecule?
Answer: 234 ± 53.9

Question: And the tissue to tissue ratio at 24 h [2, 3]?
Answer: 1220 ± 229

Question: And the tissue to tissue ratio at 72 h [2, 3]?
Answer: 1330 ± 177

Question: What about the tissue to tissue ratio at 120 h [2, 3] of the same molecule?
Answer: 1310 ± 412

Question: And the tissue to tissue ratio at 1 h ([2]; tumor/kidney, Tumor/kidney uptake ratio, 1 h blocked (co-injected with 100 µg [D-Phe6,Leu-NHEt13,des-Met14]Bombesin(6-14)))?
Answer: 0.85 ± 0.1

Question: What about the tissue to tissue ratio at 1 h ([2]; tumor/kidney, Tumor/kidney uptake ratio, 1 h post-injection) of the same molecule?
Answer: 2.96 ± 0.43

Question: What about the tissue to tissue ratio at 4 h [2, 4] of the same molecule?
Answer: 3.27 ± 0.89

Question: What about the tissue to tissue ratio at 24 h [2, 4] of the same molecule?
Answer: 4.86 ± 0.64

Question: And the tissue to tissue ratio at 72 h [2, 4]?
Answer: 8.92 ± 1.62

Question: And the tissue to tissue ratio at 120 h [2, 4]?
Answer: 11.3 ± 1.27

Question: What about the tissue to tissue ratio at 1 h ([2]; tumor/muscle, Tumor/muscle uptake ratio, 1 h blocked (co-injected with 100 µg [D-Phe6,Leu-NHEt13,des-Met14]Bombesin(6-14))) of the same molecule?
Answer: 21.5 ± 3.27

Question: What about the tissue to tissue ratio at 1 h ([2]; tumor/muscle, Tumor/muscle uptake ratio, 1 h post-injection) of the same molecule?
Answer: 76.2 ± 10.1

Question: And the tissue to tissue ratio at 4 h [2, 5]?
Answer: 392 ± 101

Question: And the tissue to tissue ratio at 24 h [2, 5]?
Answer: 651 ± 95

Question: What about the tissue to tissue ratio at 72 h [2, 5] of the same molecule?
Answer: 647 ± 311

Question: What about the tissue to tissue ratio at 120 h [2, 5] of the same molecule?
Answer: 776 ± 314

Question: And the tissue to tissue ratio at 1 h ([2]; tumor/pancreas, Tumor/pancreas uptake ratio, 1 h blocked (co-injected with 100 µg [D-Phe6,Leu-NHEt13,des-Met14]Bombesin(6-14)))?
Answer: 1.17 ± 0.31

Question: What about the tissue to tissue ratio at 1 h ([2]; tumor/pancreas, Tumor/pancreas uptake ratio, 1 h post-injection) of the same molecule?
Answer: 0.99 ± 0.11

Question: What about the tissue to tissue ratio at 4 h [2, 6] of the same molecule?
Answer: 1.87 ± 0.37

Question: And the tissue to tissue ratio at 24 h [2, 6]?
Answer: 2.22 ± 0.25

Question: What about the tissue to tissue ratio at 72 h [2, 6] of the same molecule?
Answer: 4.58 ± 0.68

Question: And the tissue to tissue ratio at 120 h [2, 6]?
Answer: 6.6 ± 1.14

Question: What about the tissue uptake at 1 h ([2]; PC-3 tumor, 100 ug, Uptake in PC-3 tumor, 1 h blocked (co-injected with 100 µg [D-Phe6,Leu-NHEt13,des-Met14]Bombesin(6-14))) of the same molecule?
Answer: 2.99 ± 0.42 %ID/g

Question: And the tissue uptake at 1 h ([2]; PC-3 tumor, Uptake in PC-3 tumor, 1 h post-injection)?
Answer: 11 ± 1.03 %ID/g

Question: What about the tissue uptake at 4 h [2, 7] of the same molecule?
Answer: 10.1 ± 1.4 %ID/g

Question: And the tissue uptake at 24 h [2, 7]?
Answer: 6.9 ± 1.34 %ID/g

Question: And the tissue uptake at 72 h [2, 7]?
Answer: 4.72 ± 1.42 %ID/g

Question: What about the tissue uptake at 120 h [2, 7] of the same molecule?
Answer: 2.23 ± 0.33 %ID/g

Question: What about the tissue uptake at 1 h ([2]; adrenal glands, 100 ug, Uptake in adrenal glands, 1 h blocked (co-injected with 100 µg [D-Phe6,Leu-NHEt13,des-Met14]Bombesin(6-14))) of the same molecule?
Answer: 0.54 ± 0.24 %ID/g

Question: What about the tissue uptake at 24 h [2, 8] of the same molecule?
Answer: 0.98 ± 0.18 %ID/g

Question: What about the tissue uptake at 120 h [2, 8] of the same molecule?
Answer: 0.25 ± 0.05 %ID/g

Question: And the tissue uptake at 1 h ([2]; blood, 100 ug, Uptake in blood, 1 h blocked (co-injected with 100 µg [D-Phe6,Leu-NHEt13,des-Met14]Bombesin(6-14)))?
Answer: 0.58 ± 0.16 %ID/g

Question: And the tissue uptake at 4 h ([2]; blood, Uptake in blood)?
Answer: 0.04 ± 0.01 %ID/g

Question: And the tissue uptake at 24 h ([2]; blood, Uptake in blood)?
Answer: 0.01 %ID/g

Question: And the tissue uptake at 1 h ([2]; bone, 100 ug, Uptake in bone, 1 h blocked (co-injected with 100 µg [D-Phe6,Leu-NHEt13,des-Met14]Bombesin(6-14)))?
Answer: 0.08 ± 0.02 %ID/g

Question: What about the tissue uptake at 4 h ([2]; bone, Uptake in bone) of the same molecule?
Answer: 0.05 ± 0.03 %ID/g

Question: What about the tissue uptake at 24 h ([2]; bone, Uptake in bone) of the same molecule?
Answer: 0.02 ± 0.01 %ID/g

Question: What about the tissue uptake at 72 h ([2]; bone, Uptake in bone) of the same molecule?
Answer: 0.02 ± 0.01 %ID/g

Question: And the tissue uptake at 120 h ([2]; bone, Uptake in bone)?
Answer: 0.01 %ID/g

Question: And the tissue uptake at 1 h ([2]; brain, 100 ug, Uptake in brain, 1 h blocked (co-injected with 100 µg [D-Phe6,Leu-NHEt13,des-Met14]Bombesin(6-14)))?
Answer: 0.02 %ID/g

Question: What about the tissue uptake at 1 h ([2]; fat, 100 ug, Uptake in fat, 1 h blocked (co-injected with 100 µg [D-Phe6,Leu-NHEt13,des-Met14]Bombesin(6-14))) of the same molecule?
Answer: 0.07 ± 0.02 %ID/g

Question: What about the tissue uptake at 1 h ([2]; fat, Uptake in fat, 1 h post-injection) of the same molecule?
Answer: 0.07 ± 0.02 %ID/g

Question: What about the tissue uptake at 4 h ([2]; fat, Uptake in fat) of the same molecule?
Answer: 0.01 %ID/g

Question: And the tissue uptake at 24 h ([2]; fat, Uptake in fat)?
Answer: 0.01 %ID/g

Question: And the tissue uptake at 1 h ([2]; heart, 100 ug, Uptake in heart, 1 h blocked (co-injected with 100 µg [D-Phe6,Leu-NHEt13,des-Met14]Bombesin(6-14)))?
Answer: 0.2 ± 0.06 %ID/g

Question: And the tissue uptake at 1 h ([2]; heart, Uptake in heart, 1 h post-injection)?
Answer: 0.22 ± 0.01 %ID/g

Question: And the tissue uptake at 72 h ([2]; heart, Uptake in heart)?
Answer: 0.02 %ID/g

Question: And the tissue uptake at 120 h ([2]; heart, Uptake in heart)?
Answer: 0.01 %ID/g

Question: And the tissue uptake at 1 h ([2]; kidneys, 100 ug, Uptake in kidneys, 1 h blocked (co-injected with 100 µg [D-Phe6,Leu-NHEt13,des-Met14]Bombesin(6-14)))?
Answer: 3.56 ± 0.77 %ID/g

Question: What about the tissue uptake at 1 h ([2]; kidneys, Uptake in kidneys, 1 h post-injection) of the same molecule?
Answer: 3.77 ± 0.58 %ID/g

Question: And the tissue uptake at 4 h ([2]; kidneys, Uptake in kidneys)?
Answer: 2.67 ± 0.49 %ID/g

Question: What about the tissue uptake at 24 h ([2]; kidneys, Uptake in kidneys) of the same molecule?
Answer: 1.46 ± 0.42 %ID/g

Question: What about the tissue uptake at 72 h ([2]; kidneys, Uptake in kidneys) of the same molecule?
Answer: < 1 %ID/g

Question: And the tissue uptake at 120 h ([2]; kidneys, Uptake in kidneys)?
Answer: 0.2 ± 0.02 %ID/g

Question: And the tissue uptake at 1 h ([2]; large intestine, Uptake in large intestine, 1 h post-injection)?
Answer: 1 ± 0.15 %ID/g

Question: What about the tissue uptake at 4 h [2, 9] of the same molecule?
Answer: 1.15 ± 0.38 %ID/g

Question: What about the tissue uptake at 24 h [2, 9] of the same molecule?
Answer: 0.44 ± 0.11 %ID/g

Question: And the tissue uptake at 1 h ([2]; liver, 100 ug, Uptake in liver, 1 h blocked (co-injected with 100 µg [D-Phe6,Leu-NHEt13,des-Met14]Bombesin(6-14)))?
Answer: 0.26 ± 0.05 %ID/g

Question: What about the tissue uptake at 24 h ([2]; liver, Uptake in liver) of the same molecule?
Answer: 0.13 ± 0.04 %ID/g
